Measurements as given in publication PMC5987880 (The Journal of General Physiology, 2018).
pKd: −log10 of the molar value. Several values for one entry are separate records, joined by “and”; a condition that tells them apart may be missing. Equal values may be shown once. Blank lines part the entries; values can stand above or below the compound they belong to.

How the values were obtained:
SthK [1] = molecular target: T1, SthK (Spirochaeta thermophila, UniProt G0GA88); assay: Single-channel recordings of purified SthK in horizontal lipid bilayers; assay type: biochemical
T1 sequence (G0GA88 1-420): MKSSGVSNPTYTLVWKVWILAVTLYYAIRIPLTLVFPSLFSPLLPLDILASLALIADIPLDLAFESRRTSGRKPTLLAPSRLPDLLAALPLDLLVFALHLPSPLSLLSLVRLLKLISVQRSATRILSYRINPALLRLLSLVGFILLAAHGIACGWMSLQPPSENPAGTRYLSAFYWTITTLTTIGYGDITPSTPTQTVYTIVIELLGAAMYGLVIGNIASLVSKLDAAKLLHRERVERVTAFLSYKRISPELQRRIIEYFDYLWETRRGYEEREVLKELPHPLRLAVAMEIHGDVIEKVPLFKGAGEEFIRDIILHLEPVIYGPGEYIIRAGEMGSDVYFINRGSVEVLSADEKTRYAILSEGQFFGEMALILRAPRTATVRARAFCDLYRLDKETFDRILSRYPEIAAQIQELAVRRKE

SthK [2] = molecular target: T1, SthK; assay: Sequential-mixing stopped-flow fluorescence Tl+ flux assay with SthK liposomes; assay type: biochemical
SthK [3] = molecular target: T1, SthK; assay: 86Rb+ flux; assay type: biochemical; conditions: 200 µM cyclic nucleotide, 5:3:2 DOPC:POPG:cardiolipin liposomes
SthK [4] = molecular target: T1, SthK; conditions: at 100 mV; ref Brams et al. (2014); cited from earlier work
isolated CNBD of MloK1 = conditions: read-out: Kd for isolated CNBD of MloK1; ref Cukkemane et al., 2007; cited from earlier work
HCN4 = conditions: read-out: Kd for HCN4; ref Akimoto et al., 2014; cited from earlier work
[5] = molecular target: SthK, cyclic nucleotide-gated (CNG) channel from Spirochaeta thermophila, final expression construct SthK_(Δ421–430) (Spirochaeta thermophila); assay: cross-linking

Open probability Po at 0 mV (SthK [1]; cAMP alone, 0 mV): ≈ 0.1 | Hill coefficient nH, bilayer recordings (SthK [1]; open probability at 100 mV (Eq. 10)): 3 | Time to maximum activation of SthK (SthK [2]; 200 µM cAMP): 2 s and 1 to 2 s | Activation time constant τ1 (SthK [2]; 200 µM cAMP, delay 0.015-10 s, sum of two exponentials (amplitude 0.45)): ≈ 0.05 s | Activation time constant τ2 (SthK [2]; 200 µM cAMP, delay 0.015-10 s, sum of two exponentials (amplitude 0.55)): ≈ 1.04 s | Slow activation phase (as stated in the Discussion) (SthK [2]; activation kinetics of SthK): ~2 s | 86Rb+ uptake through SthK liposomes (SthK [3]): robust cAMP-dependent activity
Compound: Nc1ncnc2c1ncn2[C@@H]1O[C@@H]2COP(=O)(O)O[C@H]2[C@H]1O [cAMP, cyclic adenosine monophosphate]
Open probability Po in oocytes (SthK [4]): ≈ 0.14

Open probability Po with cGMP (SthK [1]; cGMP alone): < 0.003
Compound: Nc1nc2c(ncn2[C@@H]2O[C@@H]3COP(=O)(O)O[C@H]3[C@H]2O)c(=O)[nH]1 [cGMP, cyclic guanosine monophosphate]

Compound: Nc1ncnc2c1nc(SCCNc1ccc([N+](=O)[O-])c3nonc13)n2[C@@H]1O[C@@H]2COP(=O)(O)O[C@H]2[C@H]1O [fcAMP, 8-NBD-cAMP]
pKd (isolated CNBD of MloK1): ~7.80 | pKd (HCN4): 5.30

stoichiometry N [5]: 4
Compound: SthK, cyclic nucleotide-gated (CNG) channel from Spirochaeta thermophila, final expression construct SthK_(Δ421–430) (natural protein)
